# Test results: patent US8268803B2, “5, 6-ring annulated indole derivatives and use thereof” (Merck Sharp & Dohme Corp., priority 2006, dated 2012)
# How the values were obtained:
# [1] = tested on: HCV replicon cells (replicon RNA level); assay: Cell-Based HCV Replicon Assay; settings: Hepatitis C virus, 72 h; replicon RNA level by real time PCR (Taqman), cells harvested on day 3
# Protocol: To measure cell-based anti-HCV activity of the a Compound of Formula (I), replicon cells were seeded at 5000 cells/well in 96-well collagen I-coated Nunc plates in the presence of the Compound of Formula (I). Various concentrations of a Compound of Formula (I), typically in 10 serial 2-fold dilutions, were added to the assay mixture, with the starting concentration ranging from 250 μM to 1 μM. The final concentration of DMSO was 0.5%, fetal bovine serum was 5%, in the assay media. Cells were harvested on day 3 by the addition of 1× cell lysis buffer (Ambion cat #8721). The replicon RNA level was measured using real time PCR (Taqman assay). The amplicon was located in 5B. The PCR primers were: 5B.2F, ATGGACAGGCGCCCTGA (SEQ ID NO: 2); 5B.2R, […] (SEQ ID NO: 3); the probe sequence was FAM-labeled CACGCCATGCGCTGCGG (SEQ ID NO: 4). GAPDH RNA was used as endogenous control and was amplified in the same reaction as NS5B (multiplex PCR) using primers and VIC-labeled probe recommended by the manufacturer (PE Applied Biosystem). The real-time RT-PCR reactions were run on ABI PRISM 7900HT Sequence Detection System using the following program: 48° C. for 30 min, 95° C. for 10 min, 40 cycles of 95° C. for 15 sec, 60° C. for 1 min. The ΔCT values (CT5B-CTGAPDH) were plotted against the concentration of test compound and fitted to the sigmoid dose-response model using XLfit4 (MDL). EC50 was defined as the concentration of inhibitor necessary to achieve ΔCT=1 over the projected baseline; EC90 the concentration necessary to achieve ΔCT=3.2 over the baseline. Alternatively, to quantitate the absolute amount of replicon RNA, a standard curve was established by including serially diluted T7 transcripts of replicon RNA in the Taqman assay. All Taqman reagents were from PE Applied Biosystems. Such an assay procedure was described in detail in e.g. Malcolm et al., Antimicrobial Agents and Chemotherapy 50: 1013-1020 (2006).
# HCV Replicon assay data for selected Compounds of Formula (I) is provided below in Table 3, wherein the compound numbers correspond to the compound numbering set forth in the above specification. The data is designated as follows: “A” for EC50 values less than 1.0 micromolar (μM), “B” for EC50 values between 1.0 and 5.0 μM and “C” for EC50 values greater than 5.0 μM.
# [2] = target: T1, HCV NS5B polymerase (NS5BΔCT21, from HCV-Con 1 isolate, genotype 1b) (Hepatitis C virus genotype 1b, UniProt Q9WMX2); assay: HCV NS5B Polymerase Inhibition Assay; type: biochemical; settings: incorporation of radiolabeled CTP, 22° C. for 2 hours
# T1 construct: A soluble C-terminal 21-amino acid truncated NS5B enzyme form; polyhistidine (C); made in house; host or cells: Escherichia coli
# Description: A chemically synthesized 75-mer version, designated DCoH75, whose sequence matches the 3′-end of D-RNA, and DCoH75ddC, where the 3′-terminal cytidine of DCoH75 is replaced by dideoxycytidine, were used for assaying the NS5B enzyme activity as described in Ferrari et al., 12th International Symposium on HCV and Related Viruses, P-306 (2005). The sequence of the template RNA was: 5′-UGUGCCGGUCUUUCUGAACGGGAUAUAAACCUGGCCAGCUUCAUCGAACAAGUUGCCGUGUCUAUGACAUAGAUC-3′ (SEQ ID NO: 1). A soluble C-terminal 21-amino acid truncated NS5B enzyme form (NS5BΔCT21, from HCV-Con 1 isolate, genotype 1b, Genbank accession number AJ238799) was produced and purified from Escherichia coli as C-terminal polyhistidine-tagged fusion protein as described in Ferrari et al., J. Virol. 73:1649-1654 (1999). A typical assay contained 20 mM Hepes pH 7.3, 10 mM MgCl2, 60 mM NaCl, 100 μg/ml BSA, 20 units/ml RNasin, 7.5 mM DTT, 0.1 μm ATP/GTP/UTP, 0.026 μM CTP, 0.25 mM GAU, 0.03 μM RNA template, 20 μCi/ml [^33P]-CTP, 2% DMSO, and 30 or 150 nM NS5B enzyme. Reactions were incubated at 22° C. for 2 hours, then stopped by adding 150 mM EDTA, washed in DE81 filter plate in 0.5M di-basic sodium phosphate buffer, pH 7.0, and counted using Packard TopCount after the addition of scintillation cocktail. Polynucleotide synthesis was monitored by the incorporation of radiolabeled CTP. The effect of the Compounds of Formula (I) on the polymerase activity was evaluated by adding various concentrations of a Compound of Formula (I), typically in 10 serial 2-fold dilutions, to the assay mixture. The starting concentrations ranged from 200 μM to 1 μM. An IC50 value for the inhibitor, defined as the compound concentration that provides 50% inhibition of polymerase activity, was determined by fitting the cpm data to the Hill equation Y=100/(1+10^((Log IC50−X)*HillSlope)), where X is the logarithm of compound concentration, and Y is the % inhibition. Ferrari et al., 12th International Symposium on HCV and Related Viruses, P-306 (2005) described in detail this assay procedure. It should be noted that such an assay as described is exemplary and not intended to limit the scope of the invention. The skilled practitioner can appreciate that modifications including but not limited to RNA template, primer, nucleotides, NS5B polymerase form, buffer composition, can be made to develop similar assays that yield the same result for the efficacy of the compounds and compositions described in the invention.
# NS5B polymerase inhibition data for selected Compounds of Formula (I) is provided below in Table 2, wherein the compound numbers correspond to the compound numbering set forth in the above specification.
SMILES,EC50 [1],IC50 [2]
CS(=O)(=O)NC(=O)c1c(-c2ccc[nH]c2=O)c2cc3c(cc2n1Cc1cc(F)ccc1F)CCC3 [Compound 1],< 1000 nM,< 25 nM
CS(=O)(=O)NC(=O)c1c(-c2ccc[nH]c2=O)c2cc3c(cc2n1Cc1ccc(O)cc1)CCC3 [Compound 2],1000 to 5000 nM,< 25 nM
O=C(O)c1c(-c2ccc[nH]c2=O)c2cc3c(cc2n1Cc1cc(F)ccc1F)CCC3 [Compound 3],1000 to 5000 nM,< 25 nM
CS(=O)(=O)NC(=O)c1c(-c2ccc[nH]c2=O)c2cc3c(cc2n1Cc1ccccc1O)CCC3 [Compound 4],1000 to 5000 nM,25 to 100 nM
CS(=O)(=O)NC(=O)c1c(-c2ccc[nH]c2=O)c2cc3c(cc2n1Cc1ccc(F)cc1F)CCC3 [Compound 5],1000 to 5000 nM,25 to 100 nM
CS(=O)(=O)NC(=O)c1c(-c2ccc[nH]c2=O)c2cc3c(cc2n1Cc1cccc(O)c1)CCC3 [Compound 6],1000 to 5000 nM,25 to 100 nM
CS(=O)(=O)NC(=O)c1c(-c2ccc[nH]c2=O)c2cc3c(cc2n1Cc1ccc(OCc2ccccc2)cc1)CCC3 [Compound 8],> 5000 nM,> 100 nM
CS(=O)(=O)NC(=O)c1c(-c2ccc[nH]c2=O)c2cc3c(cc2n1Cc1ccccc1OCc1ccccc1)CCC3 [Compound 9],> 5000 nM,> 100 nM
CS(=O)(=O)NC(=O)c1c(-c2ccc[nH]c2=O)c2cc3c(cc2n1Cc1cccc(OCc2ccccc2)c1)CCC3 [Compound 10],–,> 100 nM
Nc1cc(Cn2c(C(=O)O)c(-c3ccc[nH]c3=O)c3cc4scnc4cc32)ccn1 [Compound 11],–,> 100 nM
CS(=O)(=O)NC(=O)c1c(-c2ccc[nH]c2=O)c2cc3scnc3cc2n1Cc1ccnc(N)c1 [Compound 12],> 5000 nM,> 100 nM
